# Like-named read-outs stand apart in the source and are kept apart here.
# Test system: DTH-induced mice
# Assay: Dermal DTH response, oxalozone-induced ear swelling in mice (Experiments 5.1-5.4)
# Format: in vivo, mouse
# Settings: for inhibition at 3 µmol/kg: Mus musculus
# Procedure: Three modes of administration were performed: 1) The Lipid-conjugate in saline was injected intraperitoneally daily beginning day 0 until day 6 (Table 5.1); 2) The Lipid-conjugate in saline was injected subcutaneously into the ear (adjacent to the challenged area) in two injections, either 3 h before application of oxalozone to the ear or 1 h after application of oxalozone to the ear (Table 5.2); 3) EtOH:H2O 1:1 was applied topically to both ears on top of the challenged area daily beginning day 0 until day 6 (Table 5.3); 4) the Lipid-conjugate was applied topically only to the right ear for 5 times 4-6 hours following the challenge (Table 5.4) using either 20 μL of 0.1% DEXPE in 50% EtOH or 20 μl of Dermovat (steroid ointment). In all experiments control Group A (late sensitized only) was treated by topical application of oxalozone to both sides of the ear 24 hours before measuring its swelling. […] Of particular interest are the results presented in Table 5.4, showing that although the topical administration of the drug was unilateral in both cases, the steroid affected both ears, while the topically applied Lipid-conjugate affected only the area to which it was applied, indicative of a lack of systemic infiltration of the Lipid-conjugate in this context.
# [1] = Intraperitoneal, fully sensitized, 5 mg (15 μmol/kg)
# [2] = Subcutaneous, fully sensitized, 1 mg (3 μmol/kg)
# [3] = Unilateral topical, on right ear only, 3 μmol/kg, dermovat
compound,measurement,setting,value
C[C@H]1C[C@H]2[C@@H]3CCC4=CC(=O)C=C[C@]4(C)[C@@]3(F)[C@@H](O)C[C@]2(C)[C@@]1(O)C(=O)CO [betamethasone],Percent inhibition of ear swelling,[1],74%
same,"Swelling after sensitization - Swelling of normal ear, Mean ± S.D. (n = 12)",[1],6.5 ± 1.35 0.1 mm
same,inhibition at 3 µmol/kg,"Topical, fully sensitized, 3 μmol/kg, read-out: Percent inhibition of ear swelling",60%
same,inhibition at 3 µmol/kg,"Unilateral topical, on right ear only, 3 μmol/kg, dermovat, read-out: Percent inhibition, Left ear",63%
same,inhibition at 3 µmol/kg,"Unilateral topical, on right ear only, 3 μmol/kg, dermovat, read-out: Percent inhibition, Right ear",63%
same,Percent inhibition of ear swelling,[2],72%
same,"Swelling after sensitization - Swelling of normal ear, Mean ± S.D. (n = 12)",[2],8.1 ± 1.19 0.1 mm
same,"Swelling after sensitization - Swelling of normal ear, Mean ± S.D. (n = 12)","Topical, fully sensitized, 3 μmol/kg",10.6 ± 0.84 0.1 mm
same,"Swelling after sensitization - Swelling of normal ear, Left ear, Mean ± S.D. (n = 10)",[3],7.0 ± 1.0 0.1 mm
same,"Swelling after sensitization - Swelling of normal ear, Right ear, Mean ± S.D. (n = 10)",[3],7.0 ± 1.0 0.1 mm

# From patent publication US20150025233A1, “USE OF LIPID CONJUGATES IN THE TREATMENT OF DISEASES” (priority 2001, published 2015)
